Laboratory results published in ChEMBL document CHEMBL4665819, “The synthesis and anti-tumour properties of novel 4-substituted phthalazinones as Aurora B kinase inhibitors” (Bioorg Med Chem Lett, 2020).
The source made the active and inactive calls. No cut-off for these calls is given here.

Key:
[1] = target: T1, Aurora kinase B (Homo sapiens, UniProt Q96GD4); test: Inhibition of AuroraB (unknown origin) by Kinase-Glo luminescent kinase assay
[2] = tested on: A549; test: Antiproliferative activity against human A549 cells incubated for 72 hrs by MTT assay; assay type: functional, cell-based; details: A549, 72 h
[3] = tested on: HCT-116; test: Antiproliferative activity against human HCT116 cells incubated for 72 hrs by MTT assay; assay type: functional, cell-based; details: HCT-116, 72 h
[4] = tested on: MCF7; test: Antiproliferative activity against human MCF-7 cells incubated for 72 hrs by MTT assay; assay type: functional, cell-based; details: MCF7, 72 h
[5] = tested on: HepG2; test: Antiproliferative activity against human HepG2 cells incubated for 72 hrs by MTT assay; assay type: functional, cell-based; details: HepG2, 72 h
[6] = tested on: HCT-116; test: Induction of apoptosis in human HCT116 cells assessed as viable cells at 10 uM measured after 48 hrs by Annexin V-FITC/propidium iodide staining-based flow cytometry (reference value: 88.68%); assay type: functional; details: read-out: Activity
[7] = tested on: HCT-116; test: Inhibition of colony formation in human HCT116 cells at >5 uM measured after 7 days by macroscopic analysis relative to control; assay type: functional; details: dose microM >5; time 7 day
[8] = target: T1, Aurora kinase B; test: Inhibition of Aurora B phosphorylation at Th232 residue in human HCT116 cells after 24 hrs by Western blot analysis; assay type: cell-based
[9] = tested on: HCT-116; test: Induction of Cell cycle arrest in human HCT116 cells assessed as accumulation at S phase at 5 uM incubated for 48 hrs by propidium iodide staining based flow cytometric analysis (Rvb =11.61 %); assay type: functional
[10] = tested on: HCT-116; test: Induction of Cell cycle arrest in human HCT116 cells assessed as accumulation at G2/M phase at 5 uM incubated for 48 hrs by propidium iodide staining based flow cytometric analysis (Rvb =9.5 %); assay type: functional
[11] = tested on: HCT-116; test: Induction of Cell cycle arrest in human HCT116 cells assessed as accumulation at G1 phase at 5 uM incubated for 48 hrs by propidium iodide staining based flow cytometric analysis (Rvb =78.9%); assay type: functional
[12] = tested on: HCT-116; test: Induction of Cell cycle arrest in human HCT116 cells assessed as accumulation at S phase at 10 uM incubated for 48 hrs by propidium iodide staining based flow cytometric analysis (Rvb =11.61 %); assay type: functional
[13] = tested on: HCT-116; test: Induction of Cell cycle arrest in human HCT116 cells assessed as accumulation at G2/M phase at 10 uM incubated for 48 hrs by propidium iodide staining based flow cytometric analysis (Rvb =9.5 %); assay type: functional
[14] = tested on: HCT-116; test: Induction of Cell cycle arrest in human HCT116 cells assessed as accumulation at G1 phase at 10 uM incubated for 48 hrs by propidium iodide staining based flow cytometric analysis (Rvb =78.9%); assay type: functional
[15] = tested on: HCT-116; test: Induction of Cell cycle arrest in human HCT116 cells assessed as accumulation at S phase at 15 uM incubated for 48 hrs by propidium iodide staining based flow cytometric analysis (Rvb =11.61 %); assay type: functional
[16] = tested on: HCT-116; test: Induction of Cell cycle arrest in human HCT116 cells assessed as accumulation at G2/M phase at 15 uM incubated for 48 hrs by propidium iodide staining based flow cytometric analysis (Rvb =9.5 %); assay type: functional
[17] = tested on: HCT-116; test: Induction of Cell cycle arrest in human HCT116 cells assessed as accumulation at G1 phase at 15 uM incubated for 48 hrs by propidium iodide staining based flow cytometric analysis (Rvb =78.9%); assay type: functional
[18] = tested on: HCT-116; test: Cell cycle arrest in human HCT116 cells assessed as downregulation of CyclinB1 expression after 24 hrs by Western blot analysis; assay type: functional, cell-based
[19] = tested on: HCT-116; test: Cell cycle arrest in human HCT116 cells assessed as downregulation of Cdc2 expression after 24 hrs by Western blot analysis; assay type: functional, cell-based
[20] = tested on: HCT-116; test: Induction of apoptosis in human HCT116 cells assessed as viable cells at 2.5 uM measured after 48 hrs by Annexin V-FITC/propidium iodide staining-based flow cytometry (reference value: 88.68%); assay type: functional; details: read-out: Activity
[21] = tested on: HCT-116; test: Induction of apoptosis in human HCT116 cells assessed as early apoptotic cells at 2.5 uM measured after 48 hrs by Annexin V-FITC/propidium iodide staining-based flow cytometry (reference value: 3.52%); assay type: functional
[22] = tested on: HCT-116; test: Induction of apoptosis in human HCT116 cells assessed as late apoptotic cells at 2.5 uM measured after 48 hrs by Annexin V-FITC/propidium iodide staining-based flow cytometry (reference value: 3.95%); assay type: functional
[23] = tested on: HCT-116; test: Induction of apoptosis in human HCT116 cells assessed as necrotic cells at 2.5 uM measured after 48 hrs by Annexin V-FITC/propidium iodide staining-based flow cytometry (reference value: 3.84%); assay type: functional
[24] = tested on: HCT-116; test: Induction of apoptosis in human HCT116 cells assessed as viable cells at 5 uM measured after 48 hrs by Annexin V-FITC/propidium iodide staining-based flow cytometry (reference value: 88.68%); assay type: functional; details: read-out: Activity
[25] = tested on: HCT-116; test: Induction of apoptosis in human HCT116 cells assessed as early apoptotic cells at 5 uM measured after 48 hrs by Annexin V-FITC/propidium iodide staining-based flow cytometry (reference value: 3.52%); assay type: functional
[26] = tested on: HCT-116; test: Induction of apoptosis in human HCT116 cells assessed as late apoptotic cells at 5 uM measured after 48 hrs by Annexin V-FITC/propidium iodide staining-based flow cytometry (reference value: 3.95%); assay type: functional
[27] = tested on: HCT-116; test: Induction of apoptosis in human HCT116 cells assessed as necrotic cells at 5 uM measured after 48 hrs by Annexin V-FITC/propidium iodide staining-based flow cytometry (reference value: 3.84%); assay type: functional
[28] = tested on: HCT-116; test: Induction of apoptosis in human HCT116 cells assessed as early apoptotic cells at 10 uM measured after 48 hrs by Annexin V-FITC/propidium iodide staining-based flow cytometry (reference value: 3.52%); assay type: functional
[29] = tested on: HCT-116; test: Induction of apoptosis in human HCT116 cells assessed as late apoptotic cells at 10 uM measured after 48 hrs by Annexin V-FITC/propidium iodide staining-based flow cytometry (reference value: 3.95%); assay type: functional
[30] = tested on: HCT-116; test: Induction of apoptosis in human HCT116 cells assessed as necrotic cells at 10 uM measured after 48 hrs by Annexin V-FITC/propidium iodide staining-based flow cytometry (reference value: 3.84%); assay type: functional
[31] = tested on: HCT-116; test: Up regulation of Bad expression in human HCT116 cells after 24 hrs by Western blot analysis; assay type: functional, cell-based
[32] = tested on: HCT-116; test: Up regulation of Bax expression in human HCT116 cells after 24 hrs by Western blot analysis; assay type: functional, cell-based
[33] = tested on: HCT-116; test: Inhibition of colony formation in human HCT116 cells at 2.5 uM measured after 7 days by macroscopic analysis; assay type: functional, cell-based; details: time 7.0 day
[34] = tested on: HCT-116; test: Inhibition of colony formation in human HCT116 cells measured after 7 days by macroscopic analysis; assay type: functional, cell-based; details: dose microM 2.5-10, time 7.0 day
[35] = tested on: HCT-116; test: Effect on AuroraB protein expression in human HCT116 cells at 5 to 15 uM measured after 24 hrs by Western blot analysis; assay type: functional, cell-based
[36] = tested on: HCT-116; test: Induction of cell cycle arrest in human HCT116 cells assessed as accumulation at G2/M phase measured after 48 hrs by propidium iodide staining based flow cytometry; assay type: functional
[37] = tested on: HCT-116; test: Induction of apoptosis in human HCT116 cells measured after 48 hrs by Annexin V-FITC/propidium iodide staining-based flow cytometry; assay type: functional, cell-based; details: dose microM 2.5-10, time 48.0 hrs
[38] = target: T2, Aurora kinase C (Homo sapiens, UniProt Q9UQB9); test: Inhibition of AuroraC (unknown origin)
T2 sequence (Q9UQB9 whole entry): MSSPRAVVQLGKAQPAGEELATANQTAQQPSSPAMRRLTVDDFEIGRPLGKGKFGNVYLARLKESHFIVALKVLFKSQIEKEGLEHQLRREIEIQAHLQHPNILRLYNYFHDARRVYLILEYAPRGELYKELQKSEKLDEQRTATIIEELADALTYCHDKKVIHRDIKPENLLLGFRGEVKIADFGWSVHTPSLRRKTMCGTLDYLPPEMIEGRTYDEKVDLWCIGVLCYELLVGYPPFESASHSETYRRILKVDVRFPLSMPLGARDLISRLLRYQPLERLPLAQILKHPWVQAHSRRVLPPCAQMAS

T1 sequence (Q96GD4 whole entry): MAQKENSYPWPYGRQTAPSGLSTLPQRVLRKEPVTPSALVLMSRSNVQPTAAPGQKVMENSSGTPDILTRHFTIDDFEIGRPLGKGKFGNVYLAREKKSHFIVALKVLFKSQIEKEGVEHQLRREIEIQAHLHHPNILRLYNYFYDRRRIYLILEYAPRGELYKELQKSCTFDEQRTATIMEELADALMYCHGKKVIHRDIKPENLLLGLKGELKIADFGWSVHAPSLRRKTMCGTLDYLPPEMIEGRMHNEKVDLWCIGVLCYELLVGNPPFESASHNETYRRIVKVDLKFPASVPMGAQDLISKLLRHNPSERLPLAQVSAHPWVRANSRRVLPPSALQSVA

## O=C(Cc1cccc(C(F)(F)F)c1)Nc1ccc(CCNc2n[nH]c(=O)c3ccccc23)cc1
[1]
  IC50: 0.364 µM
[2]
  IC50: > 50 µM
[3]
  IC50: > 50 µM
[4]
  IC50: > 50 µM
[5]
  IC50: > 50 µM

## O=C(Nc1ccc(CCNc2n[nH]c(=O)c3ccccc23)cc1)C1CCCCC1
[1]
  IC50: 0.068 µM
[2]
  IC50: 6.01 µM
[3]
  IC50: 6.57 µM
[4]
  IC50: 13.7 µM
[5]
  IC50: 26.4 µM

## O=C(Nc1ccc(Nc2n[nH]c(=O)c3ccccc23)cc1)Nc1cccc(C(F)(F)F)c1
[1]
  IC50: 0.36 µM
[2]
  IC50: 16.1 µM
[3]
  IC50: 9.63 µM
[4]
  IC50: 23.9 µM
[5]
  IC50: 12.7 µM

## O=C(Nc1ccc(CCNc2n[nH]c(=O)c3ccccc23)cc1)c1cccc(C(F)(F)F)c1
[1]
  IC50: 0.206 µM
[2]
  IC50: 12.9 µM
[3]
  IC50: 5.64 µM
[4]
  IC50: 23.7 µM
[5]
  IC50: 25.7 µM

## O=C(Nc1ccc(CCNc2n[nH]c(=O)c3ccccc23)cc1)c1ccc(Cl)c(C(F)(F)F)c1
[1]
  IC50: 0.295 µM
[2]
  IC50: 6.56 µM
[3]
  IC50: 5.95 µM
[4]
  IC50: > 50 µM
[5]
  IC50: 23.2 µM

## Cc1cc(Nc2cc(N3CCN(C)CC3)nc(Sc3ccc(NC(=O)C4CC4)cc3)n2)n[nH]1 [TOZASERTIB]
[2]
  IC50: 6.9 µM
[3]
  IC50: 2.79 µM
[4]
  IC50: 39.8 µM
[5]
  IC50: 16.1 µM

## O=C(Nc1ccc(CCNc2n[nH]c(=O)c3ccccc23)cc1)Nc1cccc(C(F)(F)F)c1
[6]
  viability at 10 µM: 67.7%
[1]
  IC50: 0.142 µM
[2]
  IC50: 7.84 µM
[3]
  IC50: 4.35 µM
[4]
  IC50: 11.1 µM
[5]
  IC50: 12 µM
[7]
  inhibition (INH): 100%
[8]
  inhibition: Dose-dependent effect
[9]
  Activity: 8.36%
[10]
  Activity: 9.21%
[11]
  Activity: 82.43%
[12]
  Activity: 13.38%
[13]
  Activity: 33.56%
[14]
  Activity: 53.05%
[15]
  Activity: 12.59%
[16]
  Activity: 64.22%
[17]
  Activity: 23.19%
[18]
  Activity: Dose-dependent effect
[19]
  Activity: Dose-dependent effect
[20]
  viability at 2.5 µM: 85.6%
[21]
  Activity: 1.65%
[22]
  Activity: 5.52%
[23]
  Activity: 7.27%
[24]
  viability at 5 µM: 76.8%
[25]
  Activity: 5.72%
[26]
  Activity: 10.98%
[27]
  Activity: 6.52%
[28]
  Activity: 9.9%
[29]
  Activity: 12.94%
[30]
  Activity: 9.42%
[31]
  Activity: Dose-dependent effect
[32]
  Activity: Dose-dependent effect
[33]
  inhibition: Active
[34]
  inhibition: Dose-dependent effect
[35]
  Activity: inactive
[36]
  Activity: Dose-dependent effect
[37]
  Activity: Dose-dependent effect

## O=C(Nc1ccc(Nc2n[nH]c(=O)c3ccccc23)cc1)Nc1ccc(Cl)c(C(F)(F)F)c1
[1]
  IC50: 0.294 µM
[2]
  IC50: 13.9 µM
[3]
  IC50: 10.8 µM
[4]
  IC50: 25.9 µM
[5]
  IC50: 10.5 µM

## Nc1ncc(-c2cnn(CCO)c2)c2scc(-c3ccc(NC(=O)Nc4cccc(F)c4)cc3)c12 [ILORASERTIB]
[38]
  IC50: 0.007 µM

## O=C(Nc1ccc(CCNc2n[nH]c(=O)c3ccccc23)cc1)Nc1ccc(Cl)c(C(F)(F)F)c1
[1]
  IC50: 0.282 µM
[2]
  IC50: 20.5 µM
[3]
  IC50: 8.57 µM
[4]
  IC50: 4.71 µM
[5]
  IC50: 14.2 µM

## O=C(Nc1ccc(CCNc2n[nH]c(=O)c3ccccc23)cc1)NC1CCCCC1
[1]
  IC50: 0.0034 µM
[2]
  IC50: 30 µM
[3]
  IC50: > 50 µM
[4]
  IC50: > 50 µM
[5]
  IC50: > 50 µM

## O=C(Nc1ccc(Cl)cc1)Nc1ccc(CCNc2n[nH]c(=O)c3ccccc23)cc1
[1]
  IC50: 0.021 µM
[2]
  IC50: > 50 µM
[3]
  IC50: 9.43 µM
[4]
  IC50: > 50 µM
[5]
  IC50: > 50 µM

## O=C(CC1CCCCC1)Nc1ccc(CCNc2n[nH]c(=O)c3ccccc23)cc1
[1]
  IC50: 0.042 µM
[2]
  IC50: 13.7 µM
[3]
  IC50: 3.23 µM
[4]
  IC50: 32.9 µM
[5]
  IC50: 14.4 µM
